Laboratory results from paper PMC9682480, ““Vermellogens” and the Development of CB[8]-Based Supramolecular Switches Using pH-Responsive and Non-Toxic Viologen Analogues” (Journal of the American Chemical Society, 2022).

Legend:
[1] = pKa determination by UV–vis acid–base titrations in water; assay type: physicochemical; details: aqueous phosphate and carbonate buffers; RH^2+/R^+ or MH^+/M; UV–vis titrations in water, chloride salts
Source text: Next, in our study of the stimuli-responsiveness of the “vermellogens”, we proceeded to verify the new analogues as pH-based molecular switches, by conducting UV–vis acid–base titrations in water for the compounds Ra–eH·2Cl. All the new “vermellogens” show similar π–π* main absorption bands centered at λ^1max = 366–377 nm at neutral or slightly acidic pH. An increase in the basicity of the solution produces the decrease of the aforementioned bands and the concomitant rise of new absorptions associated with the deprotonated compounds and centered at λ^2max = 460–475 nm. The pKa values obtained by the aforementioned UV–vis titrations for Ra–eH·2Cl are quite similar, showing no dependence on the substituent on the pyridinium N^+ atoms within their structures (Table 1 and Figures S115–S125). Furthermore, to evaluate the effect of the two different pyridinium heterocycles on the observed anomalous pKa’s, two analogues were prepared (Ma–bH·Cl), in which one of these moieties was substituted by a neutral phenyl ring.
4.2. pK a determination for Rb by UV-Vis
(§1) Figure S 116: UV-Vis spectra for the titration of R b·2Cl at 20 μM in NaH 2PO4/Na2HPO4, KHCO3/K2CO3 and Na2HPO4/Na2PO4 buffers. On the top right: Absorption of R b+ at λ = 474 nm plotted against pH. pH V (mL) of V (mL) of V (mL) of V (mL) of V (mL) of ABS log[A474-(measured) solution A solution B solution C solution D solution E (474 ARb2+)/(ARb1+- […]
(§2) Table S 4: Experimental data obtained for the UV-Vis titration of R b·2Cl at 20 μM in NaH2PO4/Na2HPO4, KHCO3/K2CO3 and Na2HPO4/Na2PO4 buffer. Solution A: 20 μM of R b·2Cl and 0.05 M of NaH2PO4. Solution B: 20 μM of R b·2Cl and 0.05 M of NaHPO4. Solution C: 20 μM of R b·2Cl and 0.05 M of Na2PO4. Solution D: 20 μM of R b·2Cl and 0.05 M of KHCO3. Solution E: 20 μM of R b·2Cl and 0.05 M of […]
4.4. pK a determination for Rc by UV-Vis
as §1, with “119:” for “116:”, “c·2Cl” for “b·2Cl”, “c+” for “b+”, “466” for “474”, “log[A466-(measured)” for “log[A474-(measured)”, “(466 ARc2+)/(ARc+-” for “(474 ARb2+)/(ARb1+-”
Table S 5: Experimental data obtained for the UV-Vis titration of R c·2Cl at 20 μM in NaH2PO4/Na2HPO4, KHCO3/K2CO3 and Na2HPO4/Na2PO4 buffer. Solution A: 20 μM of Rc·2Cl and 0.05 M of NaH2PO4. Solution B: 20 μM of R c·2Cl and 0.05 M of NaHPO4. Solution C: 20 μM of R c·2Cl and 0.05 M of Na2PO4. Solution D: 20 μM of R c·2Cl and 0.05 M of KHCO3. Solution E: 20 μM of R c·2Cl and 0.05 M of […]
4.6. pK a determination for Rd by UV-Vis
as §1, with “122:” for “116:”, “d·2Cl” for “b·2Cl”, “d+” for “b+”, “475” for “474”, “log[A475-(measured)” for “log[A474-(measured)”, “(475 ARd2+)/(ARd1+-” for “(474 ARb2+)/(ARb1+-”
as §2, with “6:” for “4:”, “d·2Cl” for “b·2Cl”
4.8. pK a determination for Re by UV-Vis
as §1, with “125:” for “116:”, “e·2Cl” for “b·2Cl”, “e+” for “b+”, “460” for “474”, “log[A460-(measured)” for “log[A474-(measured)”, “(460 ARe2+)/(ARe1+-” for “(474 ARb2+)/(ARb1+-”
Table S 7: Experimental data obtained for the UV-Vis titration of R e·2Cl at 20 μM in NaH2PO4/Na2HPO4, KHCO3/K2CO3 and Na2HPO4/Na2PO4 buffer. Solution A: 20 μM of R e·2Cl and 0.05 M of […]

HFF-1 cells = experiment: Cell viability assay (WST-1) in human fibroblastic cell line; assay type: cell-based; details: HFF-1, 1 mM, 24 h, WST-1
Method: (§3) To conclude with this part of our work on the molecular responsiveness of the “vermellogens,” we decided to substantiate whether the bis-pyridinium core in the compounds would have or not a viologen-like reversible redox behavior. Thus, cyclic voltamograms were recorded for RaH·2Cl (2 mM) in buffered aqueous solutions at pH = 2 (0.05 M H3PO4/NaH2PO4), 7 (0.05 M NaH2PO4/Na2HPO4), and 12 (0.05 M Na2HPO4/Na3PO4). Those shown both the acidic (RaH^2+) and basic (Ra^+) forms of the “red thread” owning non-reversible redox peaks (Figure 1b).
(§4) Fibroblast cells (HFF-1; ATTC® SCRC-1041TM) were maintained in Dulbecco’s modified eagle’s medium (DMEM) supplemented with 10% FBS and 1% P/S and kept at 37 °C in a humidified atmosphere containing 5% CO2 until their use. HFF-1 cells were seeded in 96 well-plates at an initial density of 10^4 cells/well and allowed to attach for 24 h at 37 °C. The following day, culture medium was removed, replenished by fresh medium (90 µl) and cells were exposed to different concentration of R aH·2Cl and MV (10 µl; final concentrations 0.01, 0.05, 0.1, 0.5 and 1 mM). Control conditions included cells cultured in culture medium, but in absence of compound. Cells were further incubated for 24 h at 37°C and cell viability was monitored using the tetrazolium salt (WST-1) method.6 Absorbance at 450 nm was measured using a Synergy HTX Plate Reader (Biotek, Winooski, VT, USA) and the percent of cell viability (%) was calculated as follows:
(§5) Viability (%) = […]
(§6) Where Asample and Anegative control depict those absorbance values measured at 450 nm in presence and in absence of compound, respectively. All conditions were tested by triplicate in two independent experiments. Data were expressed as mean ± standard deviation (SD). Statistical analysis was performed by two-ways and one-way ANOVA with Tukey’s LSD post hoc test using IBM SPSS Statistics version 23. A p ≤ 0.05 was considered statistically significant.
(§7) Figure S 138: Compounds tested in WST-1 assay for cell viability.
(§8) 6 Carballo-Pedrares, N.; Kattar, A.; Concheiro, A.; Alvarez-Lorenzo, C.; Rey-Rico, Niosomes-based gene delivery systems for effective transfection of human mesenchymal stem cells. A. Matter. Sci. Eng. 2021, 18, 112307.

[2] = as above; assay type: cell-based; details: human, HFF-1 fibroblast cells; HFF-1, 0.5 mM, 24 h, WST-1; read-out: cell viability (cell survival)
Method: as §3, §4, §5, §6, §7, §8

C[n+]1ccc(/C=N/Nc2cc[n+](C)cc2)cc1 [RaH·2X, (E)-1-methyl-4-((2-(1-methylpyridin-1-ium-4-yl)hydrazineylidene)methyl)pyridin-1-ium]
pKa [1]: 9 | cell survival at the highest concentration tested (HFF-1 cells): slight reduction on cell survival | viability at 24 h, 0.5 mM [2]: ~90%
